Assay results published in patent US5424185A, “Human high-affinity neurotransmitter uptake system” (Baylor College of Medicine, priority 1990, dated 1995).
Values joined by “and” are separate entries in the source; they are usually repeats but may differ in a detail not shown here. Identical values can stand only once. Like-named read-outs stand apart in the source and are kept apart here.

Columns and labels:
[1] = test system: GABA transporter (L-GAB1 cells); assay: [3H]GABA uptake by L-GAB1 cells; format: cell-based, human; conditions: for effect of GABA uptake inhibitors on [3H]GABA uptake by L-GAB1 cells: inhibitor 1 to 100 μM
Procedure: Using concentrations of [^3 H] GABA ranging from 2 to 500 μM, the kinetic profile of GABA uptake was determined for both L-GAB1 and L-M cells. The initial velocity of GABA uptake was measured and plotted against the corresponding [^3 H] GABA concentration for both cell lines. […] The velocity profile for L-GAB1 cells was subtracted by that of L-M cells, and the resulting data used for a double-reciprocal plot of velocity-^1 against GABA concentration-^1. The velocity profile for L-M cells was also transformed into a double-reciprocal plot.
Several known inhibitors of high-affinity GABA uptake were used to examine their efficacies in inhibiting [^3 H] GABA uptake by L-GAB1 cells. […] Each of these agents was used at several concentrations ranging from 1 to 100 μM in assays of [^3 H] GABA uptake by L-GAB1 cells. […] GABA uptake by L-GAB1 cells.
L-GAB1 cells were also analyzed in terms of their ligand-specificity in the high-affinity GABA uptake mechanism.

[2] = test system: neuronal and glial GABA uptake systems in the CNS; conditions: literature, cited from earlier work; for IC50: neuronal and glial uptake systems, read-out: IC50, high-affinity GABA uptake in the CNS
[3] = target: T1, human 5HT transporter (L-S1 cells) (Homo sapiens, UniProt P31645); assay: [3H]-5-HT uptake by L-S1 cells; format: cell-based
T1 construct: expressed in transfected cells; host or cells: mouse L-M fibroblasts (ATCC CCL 1.2) transfected with total human genomic DNA and pSV2neo; clone L-S1
Procedure: The cells were incubated at 37° C. for an additional 40 min.
L-S1 and L-M cells were preplated into 96-well culture plates. For uptake assays, the growth medium was removed from each well and the cells rinsed several times with oxygenated Ringer's buffer supplemented with 0.5 mM pargyline and 0.5 mM ascorbate. […] […] […] The cells remaining in the wells were lysed with 1% sodium dodecyl sulphate (SDS) and transferred to counting vials containing 5 ml of ACS scintillant (Amersham), for liquid scintillation spectrometry. For each assay, 6-8 parallel sets of wells were assayed simultaneously.
(§1) Non-specific activity was determined from parallel assays carried out at 0° C. Initial velocities were calculated in terms of pmol/mg protein/min by subtracting velocity values obtained at 0° C. from those obtained at 37° C.
(§2) Cells were assayed in the presence of each inhibitor for 40 minutes at 37° C., washed with Ringer's buffer and prepared for counting as previously described. Five confluent wells were assayed at each inhibitor concentration. The IC50 value for each inhibitor was determined by plotting the percent activity against the logarithm of inhibitor concentration. Measured levels of uptake in the presence of inhibitors were expressed as the percentage of maximal uptake (100 %) in the absence of inhibitor.

[4] = target: T2, human 5HT transporter (L-S2 cells) (Homo sapiens, UniProt P31645); assay: [3H]-5-HT uptake by L-S2 cells; format: cell-based
T2 construct: expressed in transfected cells; host or cells: mouse L-M fibroblasts (ATCC CCL 1.2) transfected with total human genomic DNA and pSV2neo; clone L-S2
Procedure: (§3) L-S1 and L-M cells were preplated into 96-well culture plates. For uptake assays, the growth medium was removed from each well and the cells rinsed several times with oxygenated Ringer's buffer supplemented with 0.5 mM pargyline and 0.5 mM ascorbate. […] The radioligand was added to a final concentration of 0.1 μM and incubated with the cells at 37° C. for 40 minutes. The incubation mixture was then removed and each well was washed three times at room temperature with Ringer's buffer. The cells remaining in the wells were lysed with 1% sodium dodecyl sulphate (SDS) and transferred to counting vials containing 5 ml of ACS scintillant (Amersham), for liquid scintillation spectrometry. For each assay, 6-8 parallel sets of wells were assayed simultaneously.
as §1, §2

L-M cells [5] = assay: [3H]-5-HT uptake by untransfected L-M cells; format: cell-based, mouse
Procedure: as §3, with “For each assay, 6-8 parallel sets of wells were assayed simultaneously.” left out
as §1
as §2, with “Five confluent wells were assayed at each inhibitor concentration.” left out

[6] = test system: human L-glutamate transporter (L-Glul cells); assay: L-[3H]glutamate uptake by L-Glul cells; format: cell-based; conditions: unlabelled neurotransmitters, EAA receptor ligands, co-transporter inhibitors
Procedure: Both L-Glul and L-M cells were assessed for their kinetic properties of [^3 H] Glu uptake, and the results were analyzed by fitting to Michaelis-Menten kinetics. This was done by incubating cells with differing concentrations of [^3 H] Glu (ranging from 0.05 to 2 μM) for 10 minutes, at both 37° C. and 0° C. The amount of [^3 H] Glu retained by the cells following incubation was then quantitated and converted (using the manufacturer's specific activity for [^3 H] Glu to the corresponding picomole-equivalent of the radioligand, for each concentration of radioligand at each temperature. Then, the pmol value is normalized by the length of incubation and the amount of protein corresponding to the number of cells assayed. The resulting value, expressed in units of pmol/min/mg protein, is the initial velocity value for each concentration of [^3 H] Glu at each temperature. The initial velocity measured at 37° C. represents total initial velocity; the initial velocity measured at 0° C. represents nonspecific initial velocity. The difference between these two velocity values is then the specific initial velocity, denoted by "V", for each concentration of [^3 H] Glu.
Various drugs specific for excitatory amino acid (EAA) receptor subtypes were assessed for their effects on [^3 H] Glu uptake by L-Glul cells.
Glu uptake by L-Glul cells.

Rat Synaptosomes = conditions: literature values; read-out: Representative IC50, Rat Synaptosomes; cited from earlier work
[7] = test system: Cultured Astrocytes (rat); conditions: read-out: Representative IC50, Cultured Astrocytes (rat); literature values; cited from earlier work
L-M cells [8] = conditions: 2 to 500 μM [3H]GABA, low-affinity system
Synaptosomes = conditions: literature values; read-out: Representative IC50, Synaptosomes; cited from earlier work
Purified Synaptosomes = conditions: literature value, reference printed beside it; read-out: Representative IC50, Purified Synaptosomes; cited from earlier work
Rabbit Platelets = conditions: read-out: Representative IC50, Rabbit Platelets; literature value; cited from earlier work
Human Platelets = conditions: literature values; read-out: Representative IC50, Human Platelets; cited from earlier work
NCCc1c[nH]c2ccc(O)cc12 [9] = test system: T3, NCCc1c[nH]c2ccc(O)cc12; assay: [3H]-5-HT uptake by L-S1 cells; format: cell-based, human; conditions: other: 10 min, 37° C. minus 0° C., Lineweaver-Burk
T3 construct: expressed in transfected cells; host or cells: mouse L-M fibroblasts (ATCC CCL 1.2) transfected with total human genomic DNA and pSV2neo; clone L-S1

NCCc1c[nH]c2ccc(O)cc12 [10] = test system: T4, NCCc1c[nH]c2ccc(O)cc12; assay: [3H]-5-HT uptake by L-S2 cells; format: cell-based, human; conditions: other: 10 min, 37° C. minus 0° C., Lineweaver-Burk
T4 construct: expressed in transfected cells; host or cells: mouse L-M fibroblasts (ATCC CCL 1.2) transfected with total human genomic DNA and pSV2neo; clone L-S2

[11] = ligand 10 μM, 10 min preincubation, 0.1 μM [3H]-5HT, 40 min, 37° C. (FIG. 1)

T2 sequence (P31645 whole entry): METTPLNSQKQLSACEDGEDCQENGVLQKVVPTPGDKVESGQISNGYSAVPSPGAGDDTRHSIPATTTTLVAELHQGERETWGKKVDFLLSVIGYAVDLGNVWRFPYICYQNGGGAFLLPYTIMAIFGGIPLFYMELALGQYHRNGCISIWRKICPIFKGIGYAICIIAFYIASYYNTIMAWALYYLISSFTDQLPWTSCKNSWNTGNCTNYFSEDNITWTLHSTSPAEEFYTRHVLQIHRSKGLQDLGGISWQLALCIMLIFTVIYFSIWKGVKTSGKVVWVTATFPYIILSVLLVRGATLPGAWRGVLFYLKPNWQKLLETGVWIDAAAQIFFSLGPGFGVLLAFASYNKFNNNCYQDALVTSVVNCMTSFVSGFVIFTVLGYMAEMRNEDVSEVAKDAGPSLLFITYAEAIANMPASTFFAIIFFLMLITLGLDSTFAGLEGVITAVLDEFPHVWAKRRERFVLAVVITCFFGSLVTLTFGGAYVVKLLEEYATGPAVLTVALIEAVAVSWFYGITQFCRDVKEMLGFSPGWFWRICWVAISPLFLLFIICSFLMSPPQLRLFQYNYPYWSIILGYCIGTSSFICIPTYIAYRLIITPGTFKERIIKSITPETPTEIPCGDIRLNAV
T1 sequence (P31645 whole entry): as above

For `O=C(O)[C@@H]1CNCC[C@@H]1O` (relative stereo) [4-cis-OHNA, 4-cis-hydroxynipecotic acid], the “effect of GABA uptake inhibitors on [3H]GABA uptake by L-GAB1 cells” value (from here on “effect of GABA uptake inhibitors”) [1] is listed as “without measurable effect” and the IC50 [2] is listed as 10000 to 200000 nM.
With `NCCc1c[nH]c2ccc(O)cc12` [5-HT, serotonin] the “effect of excess unlabelled 5-HT on [3H]5-HT uptake, L-S1” value ([3]; kinetic assay, Lineweaver-Burk) was “significantly inhibited”, the “effect of competing ligand on [3H]-5HT uptake, L-S1” value [3, 11] was “significantly inhibited” and the “effect of excess unlabelled 5-HT on [3H]5-HT uptake, L-S2” value ([4]; kinetic assay, Lineweaver-Burk) was “significantly inhibited”. For the same molecule, the “effect of competing ligand on [3H]-5HT uptake, L-S2” value [4, 11] was “significantly inhibited”, the “effect on 5-HT uptake activity of untransfected L-M cells” value (L-M cells [5]) was “unaffected” and the “effect on [3H]Glu uptake by L-Glul cells” value [6] was “only unlabelled L-glutamate seems to mediate some inhibition”. For the same molecule, the IC50 (Rat Synaptosomes) was 150 nM.
For `CN(C)CCC=C1c2ccccc2CCc2ccccc21` [Amitriptyline, amitriptyline], the IC50 [7] is given as 140 nM.
In the case of `NCCC(N)C(=O)O` (stereo not drawn) [DABA, 2,4-diaminobutyric acid], the “inhibition of total [3H]GABA uptake by L-GAB1 cells” value ([1]; effect saturating by 100 μM) is listed as “less than 20%”, the “effect of GABA uptake inhibitors” value [1] is listed as “some effect” and the IC50 [2] is listed as 10000 to 200000 nM.
In the case of `CNCCCN1c2ccccc2CCc2ccccc21` [Desipramine, desipramine], the IC50 [7] is listed as 620 nM.
In the case of `NCCCC(=O)O` [GABA, γ-aminobutyric acid], the “transport Vmax of GABA, additional component in L-GAB1 cells” value ([1]; 2 to 500 μM [3H]GABA, L-M profile subtracted) is reported as 2.4 pmol/min/mg protein, the Km ([1]; 2 to 500 μM [3H]GABA, L-M profile subtracted, read-out: transport Km of GABA, additional component in L-GAB1 cells) is reported as 110 µM and the “transport Vmax of GABA, system common to L-M and L-GAB1, L-GAB1 cells” value ([1]; 2 to 500 μM [3H]GABA, low-affinity system) is reported as 2.1 pmol/min/mg protein. For the same molecule, the Km ([1]; 2 to 500 μM [3H]GABA, low-affinity system, read-out: transport Km of GABA, system common to L-M and L-GAB1, L-GAB1 cells) was 697 µM, the “transport Vmax of GABA, L-M cells” value (L-M cells [8]) was 2.1 pmol/min/mg protein and the Km (L-M cells [8]; read-out: transport Km of GABA, L-M cells) was 697 µM. The Km ([2]; read-out: Km of high-affinity GABA transport systems in the CNS) was < 25 µM and 50 to 100 µM.
In the case of `O=C(O)C1=CCCNC1` [Guvacine], the “effect of GABA uptake inhibitors” value [1] is given as “without measurable effect” and the IC50 [2] is given as 10000 to 200000 nM.
For `CN(C)CCCN1c2ccccc2CCc2ccccc21` [Imipramine, imipramine], the “effect of competing ligand on [3H]-5HT uptake, L-S1” value [3] was “significantly inhibited”, the “effect of competing ligand on [3H]-5HT uptake, L-S2” value [4] was “significantly inhibited” and the “mechanism of inhibition of 5-HT uptake, L-S2” value [4] was “competitive inhibition”. For the same molecule, the “effect on 5-HT uptake activity of untransfected L-M cells” value (L-M cells [5]) was “unaffected”, the IC50 (Synaptosomes) was 100 nM and the IC50 (Purified Synaptosomes) was 210 nM. The IC50 [7] was 140 nM.
In the case of `CNCCC=C1c2ccccc2CCc2ccccc21` [Nortriptyline, nortriptyline], the IC50 (Rabbit Platelets) is listed as 900 nM.
For `NCCc1c[nH]c2ccccc12` [Tryptamine, tryptamine], the IC50 [3] is listed as 130 nM, the IC50 [4] is listed as 900 nM and the IC50 (Human Platelets) is listed as 2700 nM. For the same molecule, the IC50 (Rat Synaptosomes) was 2800 nM.
With `c1ccc2c3c([nH]c2c1)CNCC3` [Tryptoline] the IC50 [3] was 4000 nM, the “inhibition of [3H]-5-HT uptake in words, L-S1” value [3] was “relatively ineffective” and the IC50 [4] was 8000 nM. For the same molecule, the “inhibition of [3H]-5-HT uptake in words, L-S2” value [4] was “relatively ineffective”, the IC50 (Human Platelets) was 3800 nM and the IC50 (Rat Synaptosomes) was 2500 nM.
“human 5HT transporter (L-S1 cells) (Homo sapiens)” showed a Km (NCCc1c[nH]c2ccc(O)cc12 [9]) of 0.390 ± 0.096 µM and a Vmax (NCCc1c[nH]c2ccc(O)cc12 [9]) of 2.14 ± 0.55 pmol/mg/min.
Molecule “human 5HT transporter (L-S2 cells) (Homo sapiens)” has a Km (NCCc1c[nH]c2ccc(O)cc12 [10]) of 0.234 ± 0.027 µM and a Vmax (NCCc1c[nH]c2ccc(O)cc12 [10]) of 1.33 ± 0.13 pmol/mg/min.
